Like-named read-outs stand apart in the source and are kept apart here.
What was measured:
NaV1.8 [1] = biological target: T1, NaV1.8 (Homo sapiens, UniProt Q9Y5Y9); assay: Activity against NaV 1.8 channel (Table 4); format: cell-based
Method: Compounds of the invention are useful as antagonists of voltage-gated sodium ion channels. Antagonist properties of test compounds were assessed as follows. Cells expressing the NaV of interest were placed into microtiter plates. After an incubation period, the cells were stained with fluorescent dyes sensitive to the transmembrane potential. The test compounds were added to the microtiter plate. The cells were stimulated with either a chemical or electrical means to evoke a NaV dependent membrane potential change from unblocked channels, which was detected and measured with trans-membrane potential-sensitive dyes. Antagonists were detected as a decreased membrane potential response to the stimulus. The optical membrane potential assay utilized voltage-sensitive FRET sensors described by Gonzalez and Tsien (See, Gonzalez, J. E. and R. Y. Tsien (1995) “Voltage sensing by fluorescence resonance energy transfer in single cells” Biophys J 69(4): 1272-80, and Gonzalez, J. E. and R. Y. Tsien (1997) “Improved indicators of cell membrane potential that use fluorescence resonance energy transfer” Chem Biol 4(4): 269-77) in combination with instrumentation for measuring fluorescence changes such as the Voltage/Ion Probe Reader (VIPR®) (See, Gonzalez, J. E., K. Oades, et al. (1999) “Cell-based assays and instrumentation for screening ion-channel targets” Drug Discov Today 4(9): 431-439).
24 hours before the assay on VIPR, CHO cells endogenously expressing a NaV1.2 type voltage-gated NaV are seeded in 96-well poly-lysine coated plates at 60,000 cells per well. […] The cells are then incubated for 20-30 minutes. • 7) Once the incubation is complete, the cells are ready to be assayed on VIPR® with a sodium addback protocol. […]
Control responses are obtained by performing assays in the presence of a compound with the desired properties (positive control), such as tetracaine, and in the absence of pharmacological agents (negative control). Responses to the negative (N) and positive (P) controls are calculated as above. […]

[2] = in vivo; cited from earlier work
NaV1.8 [3] = biological target: T1, NaV1.8; settings: read-out: TTX IC50; cited from earlier work

T1 sequence (Q9Y5Y9 whole entry, looked up): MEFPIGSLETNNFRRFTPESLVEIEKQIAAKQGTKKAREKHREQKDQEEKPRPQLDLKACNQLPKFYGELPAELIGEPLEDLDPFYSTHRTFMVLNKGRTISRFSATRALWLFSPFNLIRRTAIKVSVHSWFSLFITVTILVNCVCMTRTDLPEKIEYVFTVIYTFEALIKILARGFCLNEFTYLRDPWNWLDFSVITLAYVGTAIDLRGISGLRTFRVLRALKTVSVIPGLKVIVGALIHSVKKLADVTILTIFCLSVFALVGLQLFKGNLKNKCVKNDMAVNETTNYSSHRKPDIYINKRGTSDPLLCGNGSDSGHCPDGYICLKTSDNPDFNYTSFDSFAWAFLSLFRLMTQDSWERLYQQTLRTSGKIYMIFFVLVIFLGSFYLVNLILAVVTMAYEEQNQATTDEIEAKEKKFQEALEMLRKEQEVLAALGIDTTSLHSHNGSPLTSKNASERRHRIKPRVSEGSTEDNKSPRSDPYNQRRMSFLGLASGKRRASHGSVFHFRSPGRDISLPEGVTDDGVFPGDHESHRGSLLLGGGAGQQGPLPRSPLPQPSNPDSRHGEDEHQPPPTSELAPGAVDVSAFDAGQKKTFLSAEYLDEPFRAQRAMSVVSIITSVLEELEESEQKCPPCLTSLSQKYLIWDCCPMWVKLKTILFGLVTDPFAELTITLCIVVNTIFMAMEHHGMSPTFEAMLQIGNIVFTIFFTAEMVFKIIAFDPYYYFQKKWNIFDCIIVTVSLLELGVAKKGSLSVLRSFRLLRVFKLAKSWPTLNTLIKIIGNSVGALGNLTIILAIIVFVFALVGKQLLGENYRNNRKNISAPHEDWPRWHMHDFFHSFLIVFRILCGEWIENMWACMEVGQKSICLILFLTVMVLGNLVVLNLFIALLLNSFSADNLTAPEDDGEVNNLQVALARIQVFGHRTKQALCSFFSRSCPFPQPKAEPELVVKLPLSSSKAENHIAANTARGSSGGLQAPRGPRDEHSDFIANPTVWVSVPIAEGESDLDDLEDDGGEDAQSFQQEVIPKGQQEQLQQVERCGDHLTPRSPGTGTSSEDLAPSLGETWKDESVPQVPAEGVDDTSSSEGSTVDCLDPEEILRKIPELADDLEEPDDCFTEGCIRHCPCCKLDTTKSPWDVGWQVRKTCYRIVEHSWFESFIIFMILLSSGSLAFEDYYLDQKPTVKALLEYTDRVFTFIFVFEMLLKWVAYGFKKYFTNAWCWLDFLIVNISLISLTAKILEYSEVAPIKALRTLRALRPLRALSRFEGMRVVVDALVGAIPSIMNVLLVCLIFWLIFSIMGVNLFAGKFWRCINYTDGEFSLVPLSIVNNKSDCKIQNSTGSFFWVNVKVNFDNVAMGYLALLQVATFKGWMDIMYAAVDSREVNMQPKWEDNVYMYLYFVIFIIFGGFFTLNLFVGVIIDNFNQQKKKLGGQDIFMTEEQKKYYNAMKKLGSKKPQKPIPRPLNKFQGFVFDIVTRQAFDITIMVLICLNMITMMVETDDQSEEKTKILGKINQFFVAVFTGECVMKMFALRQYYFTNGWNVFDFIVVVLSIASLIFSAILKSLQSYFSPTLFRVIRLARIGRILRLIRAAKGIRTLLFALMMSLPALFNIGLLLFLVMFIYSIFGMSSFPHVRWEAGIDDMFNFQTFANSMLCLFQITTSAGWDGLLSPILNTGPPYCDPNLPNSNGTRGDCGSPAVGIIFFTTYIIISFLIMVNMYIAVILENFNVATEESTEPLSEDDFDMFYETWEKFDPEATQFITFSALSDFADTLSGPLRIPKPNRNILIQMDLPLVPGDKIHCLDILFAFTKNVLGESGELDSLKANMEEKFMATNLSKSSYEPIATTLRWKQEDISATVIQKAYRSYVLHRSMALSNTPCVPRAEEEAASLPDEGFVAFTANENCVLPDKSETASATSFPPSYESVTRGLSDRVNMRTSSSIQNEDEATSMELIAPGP

Row | SMILES | IC50 (NaV1.8 [1]) | other results
1 | CC(C)CC(O)C(=O)N1CCN(c2cccc(-c3ccccc3O)c2)CC1 (centres unmarked) [Compound 1, 2-hydroxy-1-[4-[3-(2-hydroxyphenyl)phenyl]piperazin-1-yl]-4-methyl-pentan-1-one] | > 15 µM | 
2 | CC(C)C[C@@H](O)C(=O)N1CCN(c2cccc(-c3ccccc3C(F)F)c2)CC1 [Compound 2, 1-[4-[3-[2-(difluoromethyl)phenyl]phenyl]piperazin-1-yl]-2-hydroxy-4-methyl-pentan-1-one] | < 10 µM | 
3 | CC(C)COC(=O)N1CCN(c2cccc(-c3ccccc3O)c2)CC1 [Compound 3, 4-[3-(2-hydroxyphenyl)phenyl]piperazine-1-carboxylic acid isobutyl ester] | > 15 µM | 
4 | NCC1(CC(=O)O)CCCCC1 [Gabapentin] |  | share of patients in which it works [2]: 60%
5 | NC1=N[C@H](O)[C@H]2[C@H]3O[C@]4(O)O[C@@H]([C@@H](O)[C@@]2(N1)[C@@H]4O)[C@]3(O)CO [TTX, tetrodotoxin] |  | IC50 (NaV1.8 [3]): > 50 µM

— patent US7705002B2, “Biaryls useful as modulators of ion channels” (Vertex Pharmaceuticals Incorporated, priority 2005, dated 2010)
